Results on 27 compounds are retold here after publication PMC6664820, “Novel natural and synthetic inhibitors of solute carriers SGLT1 and SGLT2” (Pharmacology Research & Perspectives, 2019).

Counter-ions that a name gives are not always drawn. Like-named read-outs stand apart in the source and are kept apart here.

One assay concerns the target T1, SGLT1 (Homo sapiens, UniProt P13866).
T1 sequence (P13866 1-664): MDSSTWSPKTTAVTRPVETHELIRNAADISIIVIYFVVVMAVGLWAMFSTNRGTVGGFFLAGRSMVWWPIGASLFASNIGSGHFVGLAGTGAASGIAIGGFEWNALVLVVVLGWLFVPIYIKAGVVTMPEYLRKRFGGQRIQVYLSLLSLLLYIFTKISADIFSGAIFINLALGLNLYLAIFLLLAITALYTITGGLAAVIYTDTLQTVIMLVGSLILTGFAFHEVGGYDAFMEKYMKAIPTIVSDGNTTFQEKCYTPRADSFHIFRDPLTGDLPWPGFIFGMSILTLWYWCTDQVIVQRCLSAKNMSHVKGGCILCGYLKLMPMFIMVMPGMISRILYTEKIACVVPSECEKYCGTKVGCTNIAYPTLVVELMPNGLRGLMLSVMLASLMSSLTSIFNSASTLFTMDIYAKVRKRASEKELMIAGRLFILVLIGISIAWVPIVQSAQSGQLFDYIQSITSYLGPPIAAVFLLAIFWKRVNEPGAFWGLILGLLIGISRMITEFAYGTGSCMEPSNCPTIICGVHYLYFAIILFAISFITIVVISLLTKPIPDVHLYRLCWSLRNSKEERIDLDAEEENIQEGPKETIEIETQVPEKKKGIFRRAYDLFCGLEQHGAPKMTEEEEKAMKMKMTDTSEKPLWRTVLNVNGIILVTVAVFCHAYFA
Briefly: SGLT1 inhibition assay for validation of screening hits and similar compounds (1‐NBD‐glucose uptake, CHO‐hSGLT1 cells). The note with it: for remaining activity at 5 µM / remaining activity at 50 µM: 0.5 h, concentration not given, read-out: NORMALIZED SGLT1 ACTIVITY (%); for remaining activity at 5 µM / remaining activity at 50 µM / activity: mean; for activity: compound, normalized 1-NBD-glucose uptake, CHO-hSGLT1 cells; for IC50: 1‐NBD‐glucose uptake, CHO‐hSGLT1, mean of n biological replicates, or individual measurements where n=2, read-out: SGLT1‐IC50 Mean; for inhibition at 50 µM: read-out: SGLT1 inhibition. The assay is classed as cell-based. Also on record: activity: dose or concentration left out as unconfirmed.

The next assay deals with T2, hSGLT2 (Homo sapiens, UniProt P31639).
T2 sequence (P31639 1-672): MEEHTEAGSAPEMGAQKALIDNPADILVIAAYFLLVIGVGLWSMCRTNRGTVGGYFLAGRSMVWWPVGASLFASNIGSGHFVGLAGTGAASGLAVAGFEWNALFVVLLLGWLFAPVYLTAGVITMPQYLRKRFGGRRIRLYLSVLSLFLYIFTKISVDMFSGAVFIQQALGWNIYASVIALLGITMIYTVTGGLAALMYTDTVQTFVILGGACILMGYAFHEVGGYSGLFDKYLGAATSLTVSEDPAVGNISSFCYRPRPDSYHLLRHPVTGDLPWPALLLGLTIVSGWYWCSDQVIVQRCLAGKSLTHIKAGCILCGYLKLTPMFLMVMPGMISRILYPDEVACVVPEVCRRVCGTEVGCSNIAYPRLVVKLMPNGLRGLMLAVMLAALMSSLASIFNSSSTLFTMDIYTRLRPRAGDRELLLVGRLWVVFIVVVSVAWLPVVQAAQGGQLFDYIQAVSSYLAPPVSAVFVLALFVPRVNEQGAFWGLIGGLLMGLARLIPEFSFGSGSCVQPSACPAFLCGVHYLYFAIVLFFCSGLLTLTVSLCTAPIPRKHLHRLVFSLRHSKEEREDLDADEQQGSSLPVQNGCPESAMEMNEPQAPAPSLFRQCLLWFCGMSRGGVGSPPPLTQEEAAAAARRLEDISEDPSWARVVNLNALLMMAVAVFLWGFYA
Briefly: SGLT2 inhibition assay for validation of screening hits and similar compounds (1‐NBD‐glucose uptake, CHO‐hSGLT2 cells). In kind it is cell-based. Set-up: activity: dose or concentration left out as unconfirmed. The note with it: for remaining activity at 5 µM / remaining activity at 50 µM: 0.5 h, concentration not given, read-out: NORMALIZED SGLT2 ACTIVITY (%); for remaining activity at 5 µM / remaining activity at 50 µM / activity: mean; for activity: compound, normalized 1-NBD-glucose uptake, CHO-hSGLT2 cells; for SGLT2/SGLT1 ACTIVITY RATIO 5 uM Mean: ratio of normalized SGLT2 to SGLT1 activity at 5 uM; for IC50: 1‐NBD‐glucose uptake, CHO‐hSGLT2, mean of n biological replicates, or individual measurements where n=2, read-out: SGLT2‐IC50 Mean.

[1] abbreviates: mean inhibition with 50 μmol/L inhibitor.

As to `c1ccc(CN2CCCCC2)cc1` [1-Benzylpiperidine], at SGLT1, the remaining activity at 5 µM is 109% and the remaining activity at 50 µM came out at 102%. For the same compound, on hSGLT2, the remaining activity at 5 µM came to 94% and the remaining activity at 50 µM was 93%.
With `OC1(c2ccccc2)CCNC2CCCCC21` (stereo not drawn) [4-Phenyldecahydro-4-quinolinol], on SGLT1, the remaining activity at 5 µM came to 98% and the remaining activity at 50 µM came to 97%. Further, on hSGLT2, the remaining activity at 5 µM was 94% and the remaining activity at 50 µM is 81%.
As for `c1ccc(C23CCN(CC2)CC3)cc1` [4-Phenylquinuclidine], on SGLT1, the remaining activity at 5 µM came out at 96% and the remaining activity at 50 µM was 72%. Moreover, at hSGLT2, the remaining activity at 5 µM is 81% and the remaining activity at 50 µM was 60%.
As to `CC1(C)Oc2ccc3ccc(=O)oc3c2C[C@H]1O` [(+)-Lomatin], the activity at SGLT1 was 124%; on hSGLT2, 115%. For the same compound, the “SGLT2/SGLT1 ACTIVITY RATIO 5 uM Mean” value at hSGLT2 was determined as 0.9.
Consider `Oc1ccc(C=Cc2cc(O)cc3c2C(c2cc(O)cc(O)c2)C(c2ccc(O)cc2)O3)cc1` (stereo not drawn) [(+)‐ε‐viniferin], for which the IC50 on SGLT1 was determined as 58 µM; on hSGLT2 it was 110 µM. On SGLT1 (listed as (+)‐ε‐Viniferin), the “SGLT2/SGLT1‐50μmol/L (ratio of SGLT2 to SGLT1 activities with 50 μmol/L inhibitor)” value stood at 1.4. The inhibition at 50 µM at SGLT1 (setting [1]) is 44%. Besides, the SGLT2 inhibition entry on hSGLT2 (setting [1]) was “little inhibition of SGLT2”.
Take `CN1CCc2cc3c(cc2C2OC(O)c4c(ccc5c4OCO5)C21)OCO3` (stereo not drawn) [(Iso)rheagenine]: on SGLT1, the activity came to 114%. Moreover, on hSGLT2, the activity is 97% and the “SGLT2/SGLT1 ACTIVITY RATIO 5 uM Mean” value turned out to be 0.857.
For the compound `Oc1ccc(C=Cc2cc(O)cc3c2C(c2cc(O)cc(O)c2)C(c2ccc(O)cc2)O3)cc1` (stereo not drawn) [(−)‐ε‐viniferin], on SGLT1, the “SGLT2/SGLT1‐50μmol/L (ratio of SGLT2 to SGLT1 activities with 50 μmol/L inhibitor)” value was 0.6. Besides, the SGLT1 inhibition entry on SGLT1 (setting [1]) is “did not inhibit SGLT1”. 50 µM produced 35% inhibition on hSGLT2 (setting [1]).
With `CN1CCCCC1c1ccc(-c2cccnc2)nc1` (stereo not drawn) [Anabasamine], on SGLT1, the remaining activity at 5 µM came to 114% and the remaining activity at 50 µM came to 100%. For the same compound, at hSGLT2, the remaining activity at 5 µM was 103% and the remaining activity at 50 µM was 91%.
Turning to `Clc1ccc(C2(Cn3cncn3)OCCO2)c(Cl)c1` [Azaconazole], on SGLT1, the remaining activity at 5 µM was determined as 111% and the remaining activity at 50 µM worked out at 107%. Besides, at hSGLT2, the remaining activity at 5 µM is 109% and the remaining activity at 50 µM came to 104%.
With `Oc1c(Br)cc(Br)c2cccnc12` [Broxyquinoline], on SGLT1, the remaining activity at 5 µM is 110% and the remaining activity at 50 µM turned out to be 69%. At hSGLT2, the remaining activity at 5 µM is 100% and the remaining activity at 50 µM came to 90%.
As to `CCN(CC)CCOC(=O)C1(c2ccccc2)CCCC1` [Caramiphen, reference compound], the “SGLT2/SGLT1‐50μmol/L (ratio of SGLT2 to SGLT1 activities with 50 μmol/L inhibitor)” value at SGLT1 is recorded as 0.6. In addition, the inhibition at 50 µM was determined as 33% on SGLT1 (setting [1]) and 58% against hSGLT2 (setting [1]).
With `CN(C)CCOC(c1ccc(Cl)cc1)c1ccccn1` (stereo not drawn) [Carbinoxamine], the results for the activity at SGLT1 and at hSGLT2 were 105% and 100%, respectively. At hSGLT2, the “SGLT2/SGLT1 ACTIVITY RATIO 5 uM Mean” value came out at 1.0.
With `C=C[C@H]1C[N@@]2CC[C@H]1C[C@@H]2[C@@H](O)c1ccnc2ccccc12` [Cinchonine], the remaining activity at 5 µM was found to be 121% on SGLT1 and 111% on hSGLT2. Also, the remaining activity at 50 µM at SGLT1 amounted to 112%; at hSGLT2, 105%.
Regarding `Oc1c(I)cc(Cl)c2cccnc12` [Clioquinol, 5-Chloro-7-iodo-8-quinolinol], the remaining activity at 5 µM on SGLT1 and at hSGLT2 was 107% in each case. The remaining activity at 50 µM worked out at 84% at SGLT1 and 92% at hSGLT2.
As to `Clc1ccc(C(OCCN2CCCCC2)c2ccccc2)cc1` (stereo not drawn) [Cloperastine, cloperastine, reference compound], the IC50 at SGLT1 and at hSGLT2 was 9 µM each time. Further, at SGLT1 (SGLT1 and/or SGLT2, discussion statements), the “SGLT1/2 inhibition stated in words” value is “novel SGLT1/2 inhibitors”. Besides, the inhibition at 50 µM on SGLT1 (setting [1]) was determined as 72%.
In the case of `CC[C@H]1CN2CC[C@H]1C[C@H]2[C@H](O)c1ccnc2ccc(OC)cc12` [Dihydroquinine], at SGLT1, the remaining activity at 5 µM was 99% and the remaining activity at 50 µM came to 63%. Moreover, on hSGLT2, the remaining activity at 5 µM turned out to be 94% and the remaining activity at 50 µM came out at 58%.
For `COc1ccc2ccc(=O)oc2c1C(OC(C)=O)C(=O)C(C)C` (stereo not drawn) [Hainanmurpanin], the activity was 110% on SGLT1 and 108% at hSGLT2. Besides, the “SGLT2/SGLT1 ACTIVITY RATIO 5 uM Mean” value on hSGLT2 is reported as 1.0.
In the case of `O=C(/C=C/c1ccc(O[C@@H]2O[C@H](CO)[C@@H](O)[C@H](O)[C@H]2O)cc1)c1ccc(O)cc1O` [Isoliquiritin], on SGLT1, the “SGLT2/SGLT1‐50μmol/L (ratio of SGLT2 to SGLT1 activities with 50 μmol/L inhibitor)” value came to 1.4 and the activity was found to be 96%. Besides, the inhibition at 50 µM on SGLT1 (setting [1]) was 46%. Moreover, on hSGLT2, the activity was found to be 98% and the “SGLT2/SGLT1 ACTIVITY RATIO 5 uM Mean” value came out at 1.0. Further, the inhibition at 50 µM at hSGLT2 (setting [1]) stood at 24%.
In the case of `CCN(CC)CC(=O)Nc1c(C)cccc1C` [Lidocaine], at SGLT1, the remaining activity at 5 µM came to 90% and the remaining activity at 50 µM was 82%. At hSGLT2, the remaining activity at 5 µM came to 90% and the remaining activity at 50 µM is 77%.
As to `CN1CCN2c3ncccc3Cc3ccccc3C2C1` (stereo not drawn) [Mirtazapine], the figures for the remaining activity at 5 µM at SGLT1 and on hSGLT2 were 114% and 113%, respectively. For the same compound, the remaining activity at 50 µM on SGLT1 came out at 105%; at hSGLT2, 108%.
For `Cc1cccc(C)c1NC(=O)CN1CCCC1=O` [Nefiracetam], the remaining activity at 5 µM on SGLT1 stood at 95%; at hSGLT2 it was 87%. In addition, the figures for the remaining activity at 50 µM at SGLT1 and at hSGLT2 were 95% and 84%, respectively.
With `COc1cc2oc(=O)ccc2cc1C[C@@H](O)C(C)(C)O` [Peucedanol], the activity at SGLT1 came to 100%; at hSGLT2, 95%.
As to `Cc1cccc(C)c1NC(=O)CC12CCCN1CCC2` [Pilsicainide], at SGLT1, the remaining activity at 5 µM came to 94% and the remaining activity at 50 µM was 89%. Besides, on hSGLT2, the remaining activity at 5 µM came out at 90% and the remaining activity at 50 µM stood at 78%.
Turning to `OC[C@H]1O[C@@H](Oc2cc(O)cc(/C=C/c3ccc(O)cc3)c2)[C@H](O)[C@@H](O)[C@@H]1O` [Polydatin], the “SGLT2/SGLT1‐50μmol/L (ratio of SGLT2 to SGLT1 activities with 50 μmol/L inhibitor)” value on SGLT1 is given as 1.5. Moreover, the values for the activity on SGLT1 and at hSGLT2 were 94% and 97%, respectively. The inhibition at 50 µM turned out to be 46% on SGLT1 (setting [1]) and 18% at hSGLT2 (setting [1]). Moreover, at hSGLT2, the “SGLT2/SGLT1 ACTIVITY RATIO 5 uM Mean” value was determined as 1.0.
As for `CCCNC(C)C(=O)Nc1ccccc1C` (stereo not drawn) [Prilocaine], at SGLT1, the remaining activity at 5 µM stood at 95% and the remaining activity at 50 µM was found to be 86%. For the same compound, on hSGLT2, the remaining activity at 5 µM is 89% and the remaining activity at 50 µM is 76%.
Regarding `OC(CCN1CCCC1)(c1ccccc1)C1CCCCC1` (stereo not drawn) [Procyclidine HCl], the activity on SGLT1 was 74%; at hSGLT2, 76%.
As for `COc1cc(O)c2c(=O)c(-c3ccc(OC4OC(CO)C(O)C(O)C4O)cc3)coc2c1` (stereo not drawn) [Prunetin‐4‐p‐galactoside], the “SGLT2/SGLT1‐50μmol/L (ratio of SGLT2 to SGLT1 activities with 50 μmol/L inhibitor)” value on SGLT1 was 2.3. The inhibition at 50 µM at SGLT1 (setting [1]) stood at 62%; at hSGLT2 (setting [1]), 12%.
